Laboratory results taken from publication PMC4076210, “Discovery of Novel AKT Inhibitors with Enhanced Anti-Tumor Effects in Combination with the MEK Inhibitor” (PLoS ONE, 2014).
Where two headings read alike, the source gives them in different places.

Legend:
Test in all cases: Kinase panel
Format in all cases: biochemical
MAPK1(h) = target: T1, MAPK1(h) (Homo sapiens, UniProt P27361)
T1 construct: purchased Millipore KinaseProfiler

mTOR/FKBP12(h) = target: T2, mTOR/FKBP12(h) (Homo sapiens, UniProt P42345)
T2 construct: purchased Millipore KinaseProfiler

PDGFRα(h) = target: T3, PDGFRα(h) (Homo sapiens, UniProt P16234)
T3 construct: purchased Millipore KinaseProfiler

CaMKI(h) = target: T4, CaMKI(h) (Homo sapiens, UniProt Q14012)
T4 construct: purchased Millipore KinaseProfiler

Hck(h) = target: T5, Hck(h) (Homo sapiens, UniProt P08631)
T5 construct: purchased Millipore KinaseProfiler

SAPK2a(h) = target: T6, SAPK2a(h) (Homo sapiens, UniProt Q16539)
T6 construct: purchased Millipore KinaseProfiler

EphB1(h) = target: T7, EphB1(h) (Homo sapiens, UniProt P54762)
T7 construct: purchased Millipore KinaseProfiler
T7 sequence (P54762 18-984): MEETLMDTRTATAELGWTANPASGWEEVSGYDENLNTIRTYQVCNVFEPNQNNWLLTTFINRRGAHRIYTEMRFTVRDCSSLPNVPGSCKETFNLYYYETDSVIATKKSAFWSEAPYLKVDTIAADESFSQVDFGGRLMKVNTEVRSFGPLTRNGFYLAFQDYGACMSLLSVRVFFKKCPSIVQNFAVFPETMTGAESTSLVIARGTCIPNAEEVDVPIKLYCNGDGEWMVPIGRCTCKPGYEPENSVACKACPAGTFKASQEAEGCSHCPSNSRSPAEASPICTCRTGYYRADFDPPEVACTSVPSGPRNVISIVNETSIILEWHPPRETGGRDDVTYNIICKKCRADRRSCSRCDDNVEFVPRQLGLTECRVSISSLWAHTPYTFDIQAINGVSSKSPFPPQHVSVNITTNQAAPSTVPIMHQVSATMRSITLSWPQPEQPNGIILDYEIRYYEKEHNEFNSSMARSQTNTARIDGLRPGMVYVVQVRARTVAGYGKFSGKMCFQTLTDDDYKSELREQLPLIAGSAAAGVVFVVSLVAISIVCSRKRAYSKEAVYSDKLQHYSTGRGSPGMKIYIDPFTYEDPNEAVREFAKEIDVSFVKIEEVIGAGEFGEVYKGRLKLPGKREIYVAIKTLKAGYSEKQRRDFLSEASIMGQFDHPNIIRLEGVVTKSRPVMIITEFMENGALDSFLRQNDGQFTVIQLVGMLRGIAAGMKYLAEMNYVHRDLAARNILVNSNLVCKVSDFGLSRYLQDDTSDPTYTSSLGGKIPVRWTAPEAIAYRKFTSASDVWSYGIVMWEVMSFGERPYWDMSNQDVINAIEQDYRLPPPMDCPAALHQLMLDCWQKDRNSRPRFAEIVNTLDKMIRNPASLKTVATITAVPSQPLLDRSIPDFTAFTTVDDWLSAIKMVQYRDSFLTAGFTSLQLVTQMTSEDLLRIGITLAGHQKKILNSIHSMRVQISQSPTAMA

Ros(h) = target: T8, Ros(h) (Homo sapiens, UniProt P08922)
T8 construct: purchased Millipore KinaseProfiler

PrKX(h) = target: T9, PrKX(h) (Homo sapiens, UniProt P51817)
T9 construct: purchased Millipore KinaseProfiler
T9 sequence (P51817 1-358): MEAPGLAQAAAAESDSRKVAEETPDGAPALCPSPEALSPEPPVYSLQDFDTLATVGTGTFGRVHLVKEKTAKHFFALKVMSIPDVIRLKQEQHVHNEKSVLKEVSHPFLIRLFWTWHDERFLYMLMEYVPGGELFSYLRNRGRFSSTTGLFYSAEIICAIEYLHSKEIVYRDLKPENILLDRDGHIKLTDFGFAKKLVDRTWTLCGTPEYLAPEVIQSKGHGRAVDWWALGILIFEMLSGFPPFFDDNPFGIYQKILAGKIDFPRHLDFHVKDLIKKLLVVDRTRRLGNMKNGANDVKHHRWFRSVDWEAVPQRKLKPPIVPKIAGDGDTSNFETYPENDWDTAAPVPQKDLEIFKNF

CaMKIV(h) = target: T10, CaMKIV(h) (Homo sapiens, UniProt Q16566)
T10 construct: purchased Millipore KinaseProfiler
T10 sequence (Q16566 1-473): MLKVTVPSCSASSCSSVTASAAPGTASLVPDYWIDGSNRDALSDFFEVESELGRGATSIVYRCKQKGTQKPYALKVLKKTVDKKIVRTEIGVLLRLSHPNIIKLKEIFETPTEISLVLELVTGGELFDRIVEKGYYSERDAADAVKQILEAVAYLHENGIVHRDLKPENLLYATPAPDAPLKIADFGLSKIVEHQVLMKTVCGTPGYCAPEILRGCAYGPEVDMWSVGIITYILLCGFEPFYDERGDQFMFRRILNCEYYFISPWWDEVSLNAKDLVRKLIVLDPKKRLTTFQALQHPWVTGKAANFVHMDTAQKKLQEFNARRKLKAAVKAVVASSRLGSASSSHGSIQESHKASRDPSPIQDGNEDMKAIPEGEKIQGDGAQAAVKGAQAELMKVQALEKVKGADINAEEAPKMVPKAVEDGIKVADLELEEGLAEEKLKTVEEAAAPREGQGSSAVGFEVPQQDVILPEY

T1 sequence (P27361 whole entry): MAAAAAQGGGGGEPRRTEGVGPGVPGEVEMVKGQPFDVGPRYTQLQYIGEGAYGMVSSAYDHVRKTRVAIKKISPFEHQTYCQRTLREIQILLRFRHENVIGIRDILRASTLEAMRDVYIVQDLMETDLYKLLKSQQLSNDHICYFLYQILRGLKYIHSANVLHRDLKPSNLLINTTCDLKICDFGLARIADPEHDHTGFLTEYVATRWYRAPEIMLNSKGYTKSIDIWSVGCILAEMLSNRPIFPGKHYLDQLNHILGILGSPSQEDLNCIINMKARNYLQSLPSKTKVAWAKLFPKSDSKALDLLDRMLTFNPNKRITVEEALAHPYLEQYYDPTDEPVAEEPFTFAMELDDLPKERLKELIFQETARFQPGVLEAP
T4 sequence (Q14012 whole entry): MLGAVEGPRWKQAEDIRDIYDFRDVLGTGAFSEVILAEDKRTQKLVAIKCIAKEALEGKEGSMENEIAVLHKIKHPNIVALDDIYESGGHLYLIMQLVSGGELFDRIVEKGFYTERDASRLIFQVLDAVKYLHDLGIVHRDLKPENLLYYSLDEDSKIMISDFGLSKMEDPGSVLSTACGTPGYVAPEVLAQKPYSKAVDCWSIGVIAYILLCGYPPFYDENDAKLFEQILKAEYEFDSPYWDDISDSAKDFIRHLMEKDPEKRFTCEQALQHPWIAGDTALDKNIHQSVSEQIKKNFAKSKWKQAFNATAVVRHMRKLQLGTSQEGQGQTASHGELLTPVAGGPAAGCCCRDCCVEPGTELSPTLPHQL
T2 sequence (P42345 1362-2549 limits assumed): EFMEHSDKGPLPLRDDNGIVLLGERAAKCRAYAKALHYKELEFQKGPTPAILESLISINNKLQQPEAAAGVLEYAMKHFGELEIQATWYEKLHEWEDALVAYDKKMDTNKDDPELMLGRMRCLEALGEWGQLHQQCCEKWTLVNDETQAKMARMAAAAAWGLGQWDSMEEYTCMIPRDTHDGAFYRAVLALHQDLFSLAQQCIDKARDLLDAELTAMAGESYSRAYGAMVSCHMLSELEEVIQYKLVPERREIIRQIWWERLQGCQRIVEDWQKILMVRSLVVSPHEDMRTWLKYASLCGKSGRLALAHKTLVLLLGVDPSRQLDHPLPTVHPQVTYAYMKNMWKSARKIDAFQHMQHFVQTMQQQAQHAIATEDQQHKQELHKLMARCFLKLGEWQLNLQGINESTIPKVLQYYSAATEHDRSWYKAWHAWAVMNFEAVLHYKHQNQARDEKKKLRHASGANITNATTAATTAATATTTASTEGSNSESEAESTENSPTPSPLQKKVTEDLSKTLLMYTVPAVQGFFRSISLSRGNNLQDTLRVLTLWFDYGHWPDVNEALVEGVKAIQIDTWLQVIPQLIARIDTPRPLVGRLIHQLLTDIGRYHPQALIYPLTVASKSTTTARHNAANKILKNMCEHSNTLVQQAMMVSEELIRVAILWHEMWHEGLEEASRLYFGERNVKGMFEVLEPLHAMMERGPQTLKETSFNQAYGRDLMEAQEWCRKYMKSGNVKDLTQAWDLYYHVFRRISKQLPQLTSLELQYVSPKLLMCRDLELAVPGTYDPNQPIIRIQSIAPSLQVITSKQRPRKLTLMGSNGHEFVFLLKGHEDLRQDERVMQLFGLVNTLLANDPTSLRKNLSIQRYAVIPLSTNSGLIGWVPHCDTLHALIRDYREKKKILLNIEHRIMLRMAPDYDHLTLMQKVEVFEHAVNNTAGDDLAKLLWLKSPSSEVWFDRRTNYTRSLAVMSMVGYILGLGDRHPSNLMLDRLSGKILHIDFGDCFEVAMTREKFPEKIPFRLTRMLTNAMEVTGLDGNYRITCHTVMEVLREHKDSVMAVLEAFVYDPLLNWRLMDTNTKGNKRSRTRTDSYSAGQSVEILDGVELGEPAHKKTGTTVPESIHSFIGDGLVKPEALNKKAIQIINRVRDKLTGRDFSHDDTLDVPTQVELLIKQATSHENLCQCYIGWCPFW
T6 sequence (Q16539 whole entry): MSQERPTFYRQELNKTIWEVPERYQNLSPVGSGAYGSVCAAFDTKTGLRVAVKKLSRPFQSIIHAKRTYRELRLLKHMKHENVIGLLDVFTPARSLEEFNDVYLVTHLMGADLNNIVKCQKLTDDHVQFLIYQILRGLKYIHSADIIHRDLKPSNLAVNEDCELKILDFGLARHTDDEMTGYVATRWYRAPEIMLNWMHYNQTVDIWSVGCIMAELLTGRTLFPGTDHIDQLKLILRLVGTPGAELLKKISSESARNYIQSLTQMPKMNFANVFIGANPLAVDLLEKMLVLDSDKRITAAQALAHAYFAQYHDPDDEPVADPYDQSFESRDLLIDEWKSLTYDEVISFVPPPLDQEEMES
T3 sequence (P16234 24-1089): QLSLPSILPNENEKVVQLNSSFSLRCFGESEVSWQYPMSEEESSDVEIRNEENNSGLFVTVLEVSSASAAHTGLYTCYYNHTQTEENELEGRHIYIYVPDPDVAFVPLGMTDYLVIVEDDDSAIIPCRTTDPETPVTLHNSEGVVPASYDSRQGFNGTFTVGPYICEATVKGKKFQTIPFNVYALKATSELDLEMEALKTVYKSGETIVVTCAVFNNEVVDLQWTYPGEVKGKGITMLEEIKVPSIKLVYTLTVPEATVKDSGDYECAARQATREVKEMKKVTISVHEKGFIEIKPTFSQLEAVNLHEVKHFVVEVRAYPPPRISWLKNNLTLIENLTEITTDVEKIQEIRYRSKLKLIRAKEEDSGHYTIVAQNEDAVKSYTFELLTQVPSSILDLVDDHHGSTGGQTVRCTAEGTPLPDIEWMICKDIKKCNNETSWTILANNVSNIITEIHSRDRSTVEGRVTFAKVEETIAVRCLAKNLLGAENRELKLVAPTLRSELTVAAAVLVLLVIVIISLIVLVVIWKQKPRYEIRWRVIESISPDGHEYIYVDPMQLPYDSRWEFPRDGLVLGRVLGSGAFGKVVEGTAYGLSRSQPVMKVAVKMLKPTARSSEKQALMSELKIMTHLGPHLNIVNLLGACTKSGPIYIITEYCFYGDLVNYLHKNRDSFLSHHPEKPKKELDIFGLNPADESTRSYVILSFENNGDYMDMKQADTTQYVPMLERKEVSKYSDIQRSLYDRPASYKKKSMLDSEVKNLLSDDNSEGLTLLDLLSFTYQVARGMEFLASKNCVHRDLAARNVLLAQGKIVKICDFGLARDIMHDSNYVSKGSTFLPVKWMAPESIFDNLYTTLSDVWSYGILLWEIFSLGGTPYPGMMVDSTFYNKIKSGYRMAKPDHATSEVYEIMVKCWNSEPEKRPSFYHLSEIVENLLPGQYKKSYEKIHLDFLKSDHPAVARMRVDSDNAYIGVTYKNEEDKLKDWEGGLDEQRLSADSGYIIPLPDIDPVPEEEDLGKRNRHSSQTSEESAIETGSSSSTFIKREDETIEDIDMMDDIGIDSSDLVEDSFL
T5 sequence (P08631 whole entry): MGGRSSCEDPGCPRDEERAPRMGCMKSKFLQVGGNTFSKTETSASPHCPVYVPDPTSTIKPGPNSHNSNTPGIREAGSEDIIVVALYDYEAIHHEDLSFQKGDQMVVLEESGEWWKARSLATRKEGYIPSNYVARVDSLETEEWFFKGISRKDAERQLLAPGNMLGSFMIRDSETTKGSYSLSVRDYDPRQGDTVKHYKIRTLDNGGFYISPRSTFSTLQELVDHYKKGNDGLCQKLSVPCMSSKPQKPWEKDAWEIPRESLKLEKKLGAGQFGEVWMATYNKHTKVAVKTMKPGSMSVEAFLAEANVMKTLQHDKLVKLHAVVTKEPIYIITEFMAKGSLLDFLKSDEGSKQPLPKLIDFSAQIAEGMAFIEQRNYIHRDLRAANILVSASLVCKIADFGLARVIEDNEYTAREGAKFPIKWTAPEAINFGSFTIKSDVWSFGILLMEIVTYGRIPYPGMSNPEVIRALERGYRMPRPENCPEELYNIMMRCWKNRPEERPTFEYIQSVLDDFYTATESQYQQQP

Cn1ncc(Cl)c1-c1cc(C(=O)N[C@H](CN)Cc2cccc(F)c2)sc1Cl [GSK2110183]
inhibition at 0.5 µM (MAPK1(h)): -26%
inhibition at 10 µM (MAPK1(h)): 10%
inhibition at 0.5 µM (mTOR/FKBP12(h)): 3%
inhibition at 10 µM (mTOR/FKBP12(h)): 5%
inhibition at 0.5 µM (PDGFRα(h)): -2%
inhibition at 10 µM (PDGFRα(h)): -2%
inhibition at 0.5 µM (CaMKI(h)): 3%
inhibition at 10 µM (CaMKI(h)): 24%
inhibition at 0.5 µM (Hck(h)): -21%
inhibition at 10 µM (Hck(h)): -8%
inhibition at 0.5 µM (SAPK2a(h)): -13%
inhibition at 10 µM (SAPK2a(h)): -8%
inhibition at 0.5 µM (EphB1(h)): -2%
inhibition at 10 µM (EphB1(h)): -4%
inhibition at 0.5 µM (Ros(h)): -10%
inhibition at 10 µM (Ros(h)): -10%
inhibition at 0.5 µM (PrKX(h)): 70%
inhibition at 10 µM (PrKX(h)): 96%
inhibition at 0.5 µM (CaMKIV(h)): -15%
inhibition at 10 µM (CaMKIV(h)): 0%

Cn1ncc(Cl)c1-c1cc(C(=O)N[C@H](CN)Cc2ccc(F)c(F)c2)oc1Cl [GSK2141795]
inhibition at 0.5 µM (MAPK1(h); 0.5 µM, read-out: % Inhibition): 4%
inhibition at 10 µM (MAPK1(h); 10 µM, read-out: % Inhibition): 58%
inhibition at 0.5 µM (mTOR/FKBP12(h); 0.5 µM, read-out: % Inhibition): -19%
inhibition at 10 µM (mTOR/FKBP12(h); 10 µM, read-out: % Inhibition): -21%
inhibition at 0.5 µM (PDGFRα(h); 0.5 µM, read-out: % Inhibition): -4%
inhibition at 10 µM (PDGFRα(h); 10 µM, read-out: % Inhibition): -4%
inhibition at 0.5 µM (CaMKI(h); 0.5 µM, read-out: % Inhibition): -30%
inhibition at 10 µM (CaMKI(h); 10 µM, read-out: % Inhibition): 16%
inhibition at 0.5 µM (Hck(h); 0.5 µM, read-out: % Inhibition): -5%
inhibition at 10 µM (Hck(h); 10 µM, read-out: % Inhibition): 27%
inhibition at 0.5 µM (SAPK2a(h); 0.5 µM, read-out: % Inhibition): -7%
inhibition at 10 µM (SAPK2a(h); 10 µM, read-out: % Inhibition): -3%
inhibition at 0.5 µM (EphB1(h); 0.5 µM, read-out: % Inhibition): -5%
inhibition at 10 µM (EphB1(h); 10 µM, read-out: % Inhibition): -5%
inhibition at 0.5 µM (Ros(h); 0.5 µM, read-out: % Inhibition): 0%
inhibition at 10 µM (Ros(h); 10 µM, read-out: % Inhibition): 5%
inhibition at 0.5 µM (PrKX(h); 0.5 µM, read-out: % Inhibition): 91%
inhibition at 10 µM (PrKX(h); 10 µM, read-out: % Inhibition): 98%
inhibition at 0.5 µM (CaMKIV(h); 0.5 µM, read-out: % Inhibition): -18%
inhibition at 10 µM (CaMKIV(h); 10 µM, read-out: % Inhibition): -21%
